The nature of data set [1]: Cytotoxicity assay (resazurin) in L-929 fibroblasts. In kind it is cell-based, mouse. The following applies: mouse, L-929, 16 µM, n = 9, read-out: % Cytotoxicity ± SD. The source says:
(§1) Mouse L-929 fibroblasts (NCTC clone 929, ECACC 88102702) were used for both drug toxicity and infection assays. Cell line was obtained from Dr. Concepció Soler, Dept. Pathology & Experimental therapeutics, Faculty of Medicine and Health Sciences, University of Barcelona, Spain. Human hepatocarcinoma Hep G2 cells (American Type Culture Collection (ATCC HB-8065)) were employed only in the drug toxicity assays and were obtained from Dr. Neus Agell, Cell Biology Research Group, Faculty of Medicine and Health Sciences, University of Barcelona, Spain.
(§2) Cells were seeded by trypsinization in 96-well microplates (L-929: 4 × 10^3 cells/well; Hep G2: 1.5 × 10^4 cells/well) and incubated for 24 h at 37 °C to allow cell attachment. On the following day, the medium was discarded and replaced with a fresh medium containing the different concentrations of the drugs. Hep G2 cells were treated with concentrations of 100, 10, and 1 µM of the different drugs, while L-929 cells were treated with a wider range of concentrations in order to calculate the IC50 value (the drug concentration that inhibits 50% of cell growth). Medium, growth, and drug blanks were used in each test as controls. Plates were incubated again for another 24 h. After treatment, 20 µL of resazurin diluted in 1X phosphate-buffered saline (PBS; Sigma Aldrich) was added at a final concentration of 70 µM. The plates were incubated for another 24 h, after which fluorescence was measured in a microplate reader (FLUOstar OPTIMA, BMG LABTECH GmbH, Ortenberg, Germany) at an excitation wavelength of 530 nm and an emission wavelength of 590 nm. Each concentration was tested in triplicate and the experiments were repeated three times independently. Results indicated the percentage of toxicity (% T value). (3) % Toxicity=100−(AE−AEB)/(AC−ACB)×100 where AE is the absorbance of the experimental group, AEB the absorbance of the drug blank, AC the absorbance of the untreated cells, and ACB the absorbance of the culture medium blank. For the L-929 fibroblasts, the IC50 values (the drug concentration that inhibits 50% of cell growth) were calculated for each compound using the GraphPad Prism software.
A general note: The colour change of resazurin is a common sign of viable cells or microbes.

The nature of data set [2]: Cytotoxicity assay (resazurin) in Hep G2 cells. In kind it is cell-based, human. The following applies: human, n = 9; for cytotoxicity at 24 h, 1 µM: Hep G2, 1 µM, read-out: Cytotoxicity (% cell growth inhibition) at 1 µM ± SD; for cytotoxicity at 24 h, 10 µM: Hep G2, 10 µM, read-out: Cytotoxicity (% cell growth inhibition) at 10 µM ± SD; for cytotoxicity at 24 h, 100 µM: Hep G2, 100 µM, read-out: Cytotoxicity (% cell growth inhibition) at 100 µM ± SD.
Excerpt: as §1
as §2, with “Hep G2 cells were treated with concentrations of 100, 10, and 1 µM of the different drugs, while L-929 cells were treated with a wider range of concentrations in order to calculate the IC50 value (the drug concentration that inhibits 50% of cell growth).” left out, “For the L-929 fibroblasts, the IC50 values (the drug concentration that inhibits 50% of cell growth) were calculated for each compound using the GraphPad Prism software.” left out

Data set [3] concerns epimastigotes of T. cruzi. Put plainly: Epimastigote susceptibility assay (combined therapy with benznidazole). Format: cell-based, Trypanosoma cruzi. The following applies: combination of benznidazole with compound at 0.25x IC50. On the procedure:
To assess the anti-epimastigote effect of the compounds in combination with benznidazole, fixed concentrations of each compound were added to a 96-well microplate previously filled with serial dilutions of benznidazole (0.06–128 µM). These fixed concentrations were calculated based on the IC50 values previously obtained for each drug and corresponded to 4x IC50, 2x IC50, IC50, 0.75x IC50, 0.5x IC50, 0.25x IC50. Each well was inoculated with 100 µL of the epimastigotes (2.5 × 10^5/mL) obtained from the exponential growth phase and the plates were incubated for 72 h at 28 °C. Drug blanks, medium, and growth wells were included in each assay as controls. Afterward, 50 µL of CPRG diluted in 0.9% Triton X-100 solution were added at a final concentration of 200 µM and the plates were returned to the incubator for another 3 h at 37 °C. After incubation, absorbance was read at 595 nm and the data were analyzed. All experiments were repeated at least two times independently and each combination was tested in duplicate.
The results are expressed as the IC50 values obtained with each drug combination. To evaluate the interaction of benznidazole with these compounds, fractional inhibitory concentration (FIC) values were calculated as follows:
FIC of compound A (FIC A) = IC50 of A in combination/IC50 of A alone; while FIC of compound B (FIC B) = IC50 of B in combination/IC50 of B alone.
Finally, the FIC index (FICi) was calculated as the sum of FICs using the following formula: FICi=FIC A+FIC B
FICi values were interpreted according to the criteria established by Simoes-Silva et al.: FICi ≤ 0.5 indicates synergism; FICi > 0.5 and ≤ 4 indicates an additive interaction (no interaction); and FICi > 4 indicates antagonism.

Data set [4] relates to intact epimastigotes of T. cruzi. Put plainly: Oxygen consumption inhibition analysis (high-resolution respirometry). Format: cell-based, Trypanosoma cruzi. The conditions noted are these: for % Oxygen Uptake Inhibition (¾ IC50): compound at ¾ IC50; for effect on respiratory inhibition (in words): ½ and ¾ IC50. As for the experimental part:
Intact epimastigotes were collected by centrifugation, washed twice in PBS, and resuspended with respiration buffer containing 125 mM sucrose, 65 mM KCL, 10 mM Tris-HCl (pH 7.2), 1 mM […], and 2.5 mM K2PO4. They were then added to a final concentration of 25 × 10^6 cells/mL.
To evaluate the effect of the different drugs on mitochondrial function, we measured mitochondrial respiration in the cells before and after the addition of increasing volumes of the compounds. Each compound was added in titrations until reaching concentrations of ½ and ¾ IC50. Finally, antimycin A (AA) was added to determine the residual oxygen consumption (ROX) through the inhibition of complex III of the electron transport chain. The ROX value was subtracted from the O2 flux as a baseline for all the respiratory states.
Mitochondrial respiration was measured by high-resolution respirometry (OROBOROS Oxygraph-2k; OROBOROS Instruments, Innsbruck, Austria). Data were analyzed by using the Software DatLab Online Data Acquisition and Analysis (OROBOROS Instruments, Innsbruck, Austria). All respirometry assays were performed at a constant temperature of 28 °C, with the volume of each chamber being 2 mL. The oxygen flux values are expressed relative to the cell concentration per second (pmol/sec/10^6 cells). The effect of each compound on mitochondrial function is shown as the percentage of inhibition of oxygen flux.

Where [5] appears, read: L-929 fibroblasts (NCTC clone 929).
[6] abbreviates: Hep G2 hepatocarcinoma cells (ATCC HB-8065).

Entries after “also recorded” stand apart in the source; their conditions may differ. Where two headings read alike, the source gives them in different places.

As for `O=C(Cn1ccnc1[N+](=O)[O-])NCc1ccccc1` [Benznidazole, reference compound], the cytotoxicity at 24 h, 16 µM in data set [1] (setting [5]) worked out at 0%. For the same compound, in data set [2] (setting [6]), the cytotoxicity at 24 h, 1 µM worked out at 0%; the cytotoxicity at 24 h, 10 µM stood at 0.44 ± 0.61%; the cytotoxicity at 24 h, 100 µM turned out to be 0.18 ± 0.08%.
Turning to `CCc1c(-c2ccc[nH]2)[nH]c(/C=N/C2CCCCC2)c1C` [MM3], the FICi in data set [3] worked out at 0.79. Moreover, the cytotoxicity at 24 h, 16 µM in data set [1] (setting [5]) worked out at 88.4 ± 2.75%. In data set [2] (setting [6]), the cytotoxicity at 24 h, 1 µM was 0.99 ± 0.92%; the cytotoxicity at 24 h, 10 µM turned out to be 24.9 ± 8.92%; the cytotoxicity at 24 h, 100 µM turned out to be 94.36 ± 0.5%. Further, the “% Oxygen Uptake Inhibition (½ IC50)” value in data set [4] (compound at ½ IC50) stood at 41.26%. Further, the “Oxygen Uptake (pmol/sec/Million Cells)” value in data set [4] (compound at ½ IC50, n = 4) is given as 1.58 ± 0.05 pmol/sec/Million Cells. Besides, the “% Oxygen Uptake Inhibition (¾ IC50)” value in data set [4] is given as 42%. Also, in data set [4] (compound at ¾ IC50, n = 4), the “Oxygen Uptake (pmol/sec/Million Cells)” value is on record as 1.56 ± 0.06 pmol/sec/Million Cells.
Regarding `CCc1c(-c2ccc[nH]2)[nH]c(/C=N/c2ccc(C(C)(C)C)cc2)c1C` [MM4], the FICi in data set [3] stood at 0.70. Besides, the cytotoxicity at 24 h, 16 µM in data set [1] (setting [5]) turned out to be 64.2 ± 10.5%. In data set [2] (setting [6]), the cytotoxicity at 24 h, 1 µM is 0%; the cytotoxicity at 24 h, 10 µM was determined as 19.1 ± 3.94%; the cytotoxicity at 24 h, 100 µM is 85.2 ± 9.91%. Besides, the “% Oxygen Uptake Inhibition (½ IC50)” value in data set [4] (compound at ½ IC50) was 2.60%. In addition, the “Oxygen Uptake (pmol/sec/Million Cells)” value in data set [4] (compound at ½ IC50, n = 4) stood at 2.62 ± 0.04 pmol/sec/Million Cells. For the same compound, in data set [4], the “% Oxygen Uptake Inhibition (¾ IC50)” value was found to be 2.97% and the “effect on respiratory inhibition (in words)” value is recorded as “little or no effect; also recorded: no inhibitory effect”. The “Oxygen Uptake (pmol/sec/Million Cells)” value in data set [4] (compound at ¾ IC50, n = 4) stood at 2.61 ± 0.04 pmol/sec/Million Cells.
As for `CCCCCC1=C/C(=C/c2[nH]c(-c3ccc[nH]3)cc2OC)N=C1C` [Natural prodigiosin, prodigiosin], in data set [3], the FICi was found to be 0.81. Further, the cytotoxicity at 24 h, 16 µM in data set [1] was found to be 95.8 ± 0.09%. Further, the “% Oxygen Uptake Inhibition (½ IC50)” value is 72.8% in data set [4] (compound at ½ IC50) and 73% in data set [4] (compound at ½ IC50, listed as natural prodigiosin). For the same compound, the “Oxygen Uptake (pmol/sec/Million Cells)” value in data set [4] (compound at ½ IC50, n = 4) came to 0.73 ± 0.06 pmol/sec/Million Cells.
With `COC1=CC(c2cc3ccccc3[nH]2)=N/C1=C\c1[nH]c(C)cc1C` [Obatoclax, reference compound], in data set [3], the FICi came to 1.80. For the same compound, the cytotoxicity at 24 h, 16 µM in data set [1] (setting [5]) came to 63.5 ± 1.63%. In addition, in data set [2] (setting [6]), the cytotoxicity at 24 h, 1 µM worked out at 10.4 ± 4.8%; the cytotoxicity at 24 h, 10 µM amounted to 63.3 ± 16.9%; the cytotoxicity at 24 h, 100 µM turned out to be 74.8 ± 4.06%. In addition, the “% Oxygen Uptake Inhibition (½ IC50)” value in data set [4] (compound at ½ IC50) is reported as 0%. The “Oxygen Uptake (pmol/sec/Million Cells)” value in data set [4] (compound at ½ IC50, n = 4) is 2.69 ± 0 pmol/sec/Million Cells. In data set [4], the “% Oxygen Uptake Inhibition (¾ IC50)” value is on record as 0% and the “effect on respiratory inhibition (in words)” value is reported as “little or no effect”. For the same compound, the “Oxygen Uptake (pmol/sec/Million Cells)” value in data set [4] (compound at ¾ IC50, n = 4) amounted to 2.69 ± 0 pmol/sec/Million Cells.
Consider `CCCCCC1=C/C(=C/c2[nH]c(-c3ccc[nH]3)cc2OC)N=C1C` [Synthetic prodigiosin, prodigiosin], for which the FICi in data set [3] is recorded as 0.73. Besides, the cytotoxicity at 24 h, 10 µM in data set [2] worked out at 90.5 ± 0.82%. In addition, the cytotoxicity at 24 h, 100 µM in data set [2] came to 95.2 ± 0.94%. Further, in data set [4] (compound at ½ IC50), the “% Oxygen Uptake Inhibition (½ IC50)” value amounted to 13.58%. For the same compound, the “Oxygen Uptake (pmol/sec/Million Cells)” value is given as 2.33 ± 0.09 pmol/sec/Million Cells in data set [4] (compound at ½ IC50, n = 4) and 1.74 ± 0.17 pmol/sec/Million Cells in data set [4] (compound at ¾ IC50, n = 4). The “% Oxygen Uptake Inhibition (¾ IC50)” value in data set [4] amounted to 35.18%.

Source of the values: PMC8151848, “Tambjamines and Prodiginines: Biocidal Activity against Trypanosoma cruzi” (Pharmaceutics, 2021).
